Data published in patent US9170257B2 (priority 2012, dated 2015).
Where two headings read alike, the source gives them in different places.

Test: Tissue distribution of curcumin and THC at necropsy 15 minutes post-infusion
Set-up: species or system Beagle dogs
Settings: for Plasma concentration used to calculate Kp: average of end of infusion and 15 minutes post infusion; for concentration at 15 min / Kp at 2 h / Kp at 8 h: both sexes, dog, in vivo, 10 mg/kg; for Kp at 2 h: 2 hr infusion; for Kp at 2 h / Kp at 8 h: H3PO4 stabilized; for Kp at 8 h: 8 hr infusion
Experimental: The test article will be administered to 8 Beagle dogs by intravenous infusion over two hours (Part A) or eight hours (Part B) as shown in Table 6.
Multiple samples of tissue weighing approximately 1 gram were removed and snap frozen in the presence or absence of phosphoric acid (H3PO4). For all tissue samples, the levels of curcumin and THC were determined using a method developed by the Bioanalytical Department at Nucro-Technics. […] Values that were below the limit of quantification were assigned a value of 0. […] Tissue distribution data was analyzed using, unless stated, the data from 4 dogs and are presented as the mean±standard error (S.E.).

[1] = beagle, read-out: Kp [tissue]/[plasma], Brain Stem
[2] = beagle, read-out: Kp [tissue]/[plasma], Cortex, Brain
[3] = beagle, read-out: Kp [tissue]/[plasma], Hippocampus
[4] = beagle, read-out: Kp [tissue]/[plasma], Kidney
[5] = beagle, read-out: Kp [tissue]/[plasma], Liver
[6] = beagle, read-out: Kp [tissue]/[plasma], Lungs
[7] = beagle, read-out: Kp [tissue]/[plasma], Muscle
[8] = beagle, read-out: Kp [tissue]/[plasma], Pancreas

## COc1cc(CCC(=O)CC(=O)CCc2ccc(O)c(OC)c2)ccc1O [THC, tetrahydrocurcumin]
2 hour infusion, Plus H3PO4
  Tissue level, Liver: 0.45 ng/g
  Tissue level, Lungs: 2.14 ng/g
2 hours infusion
  Plasma concentration used to calculate Kp: 0.8109 µg/mL
8 hour infusion, Plus H3PO4
  Tissue level, Lungs: 6.36 ng/g
8 hours infusion
  Plasma concentration used to calculate Kp: 0.1045 µg/mL
Beagle, 2 hour infusion, No H3PO4, read-out: Tissue level, Brain Stem
  concentration at 15 min: 2.34 ng/g
beagle, 2 hour infusion, No H3PO4, read-out: Tissue level, Cortex, Brain
  concentration at 15 min: 0.68 ng/g
beagle, 2 hour infusion, No H3PO4, read-out: Tissue level, Heart
  concentration at 15 min: 2.51 ng/g
beagle, 2 hour infusion, No H3PO4, read-out: Tissue level, Hippocampus
  concentration at 15 min: 0.75 ng/g
beagle, 2 hour infusion, No H3PO4, read-out: Tissue level, Kidney
  concentration at 15 min: 3.06 ng/g
beagle, 2 hour infusion, No H3PO4, read-out: Tissue level, Liver
  concentration at 15 min: 1.9 ng/g
beagle, 2 hour infusion, No H3PO4, read-out: Tissue level, Lungs
  concentration at 15 min: 25 ng/g
beagle, 2 hour infusion, No H3PO4, read-out: Tissue level, Muscle
  concentration at 15 min: 5.26 ng/g
beagle, 2 hour infusion, No H3PO4, read-out: Tissue level, Pancreas
  concentration at 15 min: 2.02 ng/g
beagle, 2 hour infusion, No H3PO4, read-out: Tissue level, Striatum
  concentration at 15 min: 6.22 ng/g
beagle, 2 hour infusion, No H3PO4, read-out: Tissue level, Urinary Bladder
  concentration at 15 min: 0.84 ng/g
beagle, 2 hour infusion, Plus H3PO4, read-out: Tissue level, Brain Stem
  concentration at 15 min: 10.6 ng/g
beagle, 2 hour infusion, Plus H3PO4, read-out: Tissue level, Cortex, Brain
  concentration at 15 min: 3.08 ng/g
beagle, 2 hour infusion, Plus H3PO4, read-out: Tissue level, Heart
  concentration at 15 min: 0.69 ng/g
beagle, 2 hour infusion, Plus H3PO4, read-out: Tissue level, Hippocampus
  concentration at 15 min: 6.46 ng/g
beagle, 2 hour infusion, Plus H3PO4, read-out: Tissue level, Kidney
  concentration at 15 min: 4.25 ng/g
beagle, 2 hour infusion, Plus H3PO4, read-out: Tissue level, Muscle
  concentration at 15 min: 4.19 ng/g
beagle, 2 hour infusion, Plus H3PO4, read-out: Tissue level, Pancreas
  concentration at 15 min: 0.92 ng/g
beagle, 2 hour infusion, Plus H3PO4, read-out: Tissue level, Striatum
  concentration at 15 min: 11.1 ng/g
beagle, 2 hour infusion, Plus H3PO4, read-out: Tissue level, Urinary Bladder
  concentration at 15 min: 0.87 ng/g
[1]
  Kp at 2 h: 0.0037
  Kp at 8 h: 0.0289
[2]
  Kp at 2 h: 0.0006
  Kp at 8 h: 0.0047
[3]
  Kp at 2 h: 0.0014
  Kp at 8 h: 0.0108
[4]
  Kp at 2 h: 0.0025
  Kp at 8 h: 0.0195
[5]
  Kp at 2 h: 0.0028
  Kp at 8 h: 0.0215
[6]
  Kp at 2 h: 0.0078
  Kp at 8 h: 0.0609
[7]
  Kp at 2 h: 0.0011
  Kp at 8 h: 0.0089
[8]
  Kp at 2 h: 0.0017
  Kp at 8 h: 0.0128
beagle, read-out: Kp [tissue]/[plasma], Striatum
  Kp at 2 h: 0.0039
beagle, read-out: Kp [tissue]/[plasma], Urinary Bladder
  Kp at 2 h: 0.0014
beagle, 8 hour infusion, No H3PO4, read-out: Tissue level, Brain Stem
  concentration at 15 min: 0.83 ng/g
beagle, 8 hour infusion, No H3PO4, read-out: Tissue level, Cortex, Brain
  concentration at 15 min: 0.06 ng/g
beagle, 8 hour infusion, No H3PO4, read-out: Tissue level, Heart
  concentration at 15 min: 0.51 ng/g
beagle, 8 hour infusion, No H3PO4, read-out: Tissue level, Hippocampus
  concentration at 15 min: 0.01 ng/g
beagle, 8 hour infusion, No H3PO4, read-out: Tissue level, Kidney
  concentration at 15 min: 1.32 ng/g
beagle, 8 hour infusion, No H3PO4, read-out: Tissue level, Liver
  concentration at 15 min: 2.63 ng/g
beagle, 8 hour infusion, No H3PO4, read-out: Tissue level, Lungs
  concentration at 15 min: 10.8 ng/g
beagle, 8 hour infusion, No H3PO4, read-out: Tissue level, Muscle
  concentration at 15 min: 0.38 ng/g
beagle, 8 hour infusion, No H3PO4, read-out: Tissue level, Pancreas
  concentration at 15 min: 0.34 ng/g
beagle, 8 hour infusion, No H3PO4, read-out: Tissue level, Striatum
  concentration at 15 min: 1.12 ng/g
beagle, 8 hour infusion, No H3PO4, read-out: Tissue level, Urinary Bladder
  concentration at 15 min: 1.37 ng/g
beagle, 8 hour infusion, Plus H3PO4, read-out: Tissue level, Brain Stem
  concentration at 15 min: 3.02 ng/g
beagle, 8 hour infusion, Plus H3PO4, read-out: Tissue level, Cortex, Brain
  concentration at 15 min: 0.49 ng/g
beagle, 8 hour infusion, Plus H3PO4, read-out: Tissue level, Heart
  concentration at 15 min: 0.03 ng/g
beagle, 8 hour infusion, Plus H3PO4, read-out: Tissue level, Hippocampus
  concentration at 15 min: 1.13 ng/g
beagle, 8 hour infusion, Plus H3PO4, read-out: Tissue level, Kidney
  concentration at 15 min: 2.04 ng/g
beagle, 8 hour infusion, Plus H3PO4, read-out: Tissue level, Liver
  concentration at 15 min: 2.25 ng/g
beagle, 8 hour infusion, Plus H3PO4, read-out: Tissue level, Muscle
  concentration at 15 min: 0.93 ng/g
beagle, 8 hour infusion, Plus H3PO4, read-out: Tissue level, Pancreas
  concentration at 15 min: 1.34 ng/g
beagle, 8 hour infusion, Plus H3PO4, read-out: Tissue level, Striatum
  concentration at 15 min: 3.14 ng/g
beagle, 8 hour infusion, Plus H3PO4, read-out: Tissue level, Urinary Bladder
  concentration at 15 min: 1.11 ng/g
beagle, read-out: Kp [tissue]/[plasma], Heart
  Kp at 8 h: 0.0003
